Data set [1] concerns the target T1, A. californica ADP-ribosyl cyclase (Aplysia californica, UniProt P29241).
T1 construct: The cyclase purified from the mollusc Aplysia californica was purchased from Sigma; purchased Sigma; host or cells: purified from the mollusc
T1 sequence (P29241 25-282): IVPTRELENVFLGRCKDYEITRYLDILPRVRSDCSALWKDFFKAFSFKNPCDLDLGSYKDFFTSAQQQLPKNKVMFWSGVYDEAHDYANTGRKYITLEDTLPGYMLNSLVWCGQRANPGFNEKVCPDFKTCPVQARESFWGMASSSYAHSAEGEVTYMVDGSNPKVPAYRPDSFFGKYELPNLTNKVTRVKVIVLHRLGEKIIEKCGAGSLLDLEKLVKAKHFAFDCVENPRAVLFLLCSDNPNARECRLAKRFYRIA
The experiment in a line: Hydrolysis by Aplysia californica ADP-ribosyl cyclase. The settings on record: P18 to adenine and ADPR. It is filed as in vitro ADME. On the procedure:
(A and B) or at 37° C. (C and D) for 4 hours. […] Chromatograms representative of each incubation are shown. A. A. polypoides; B. A. californica; C.
The activities are expressed as nmol/min/mg.

The test system of data set [2] is A. polypoides ADP-ribosyl cyclase. The data set is described as follows: Hydrolysis by purified Axinella polypoides ADP-ribosyl cyclase. On the procedure:
(§1) ADP-ribosyl cyclases from lower and higher Metazoa were incubated in the presence of 0.1 mM cADPR and 1 mM adenine at pH 7.4 in 10 mM Tris-HCl (A, B and C) or in PBS-glucose (D) at 22° C. (A and B) or at 37° C. (C and D) for 4 hours. Aliquots of the various incubations were deproteinised with TCA (trichloroacetic acid) and subjected to HPLC (analytical phosphate). Chromatograms representative of each incubation are shown. A. A. polypoides; B. A. californica; C. Human CD38 (recombinant); D. Human HeLa cells transfected with sense and antisense human CD38 (dashed chromatogram).
(§2) In table 1, the absolute values of the peak-forming and -hydrolysing activities are compared with the cADPR-forming and -hydrolysing activities for each enzyme. The activities are expressed as nmol/min/mg.

Data set [3] concerns Recombinant CD38. The data set is described as follows: Hydrolysis by recombinant CD38. On the procedure: as §1, §2
In data set [4] the test system is HeLa-CD38^+ (whole cells). The data set is described as follows: Hydrolysis by CD38+ HeLa whole cells. The protocol:
as §1, §2

The test system of data set [5] is CFC (colony forming cells). The experiment in a line: CFC colony growth from cord blood mononuclear cells in semi-solid medium. The data set is classed as cell-based, human. The settings on record: Homo sapiens; 24 hours incubation of cord blood mononuclear cells, colonies counted after 2 weeks; read-out: IC50, inhibition of CFC colony growth. The protocol: Mononuclear cells isolated from cord blood were incubated in the presence of various concentrations of P18 (▴), P24 (▪) and the iso-adenosine units resulting from the enzymatic digestion of P18 (Δ) and P24 (□). After 24 hours, aliquots of cells (1-2×10^4) were seeded in semi-solid medium to allow for colony growth. Results are expressed as percentage of inhibition of colony growth compared with controls, represented by cells incubated with the same dilution of chromatographic buffer as present in the HPLC-purified compounds. The IC50 values were obtained from the logarithmic regression curves (R≧0.97). The results shown in this figure are the mean from at least three different experiments.
Mononuclear cells were isolated from cord blood (CB MNC) by a density gradient, washed by centrifugation and resuspended in complete medium (Mosmann, T. (1983) J. Immunol. Methods 65, 55-63). Cells (10^6/ml) were incubated for 24 hours in complete medium in the presence of different dinucleotides at concentrations comprised between 20 and 0.4 μM. Then, aliquots of cells (1-2×10^4) were seeded in semi-solid medium, supplemented with haemopoietic growth factors (Methocult, Stem Cell Technologies, Vancouver, BC), in order to allow colonies to develop. After 2 weeks in culture, the colonies which were grown were microscopically identified according to standard criteria (CFU-E, CFU-GM and CFU-GEM) and counted: each colony identifies a colony forming cell (CFC).

Data set [6] can be described thus: Storage stability of purified lyophilised peaks. The settings on record: stored at −20° C., several months (approx. 6). The protocol: The cyclase purified from A. polypoides was used for the production of the dinucleotides for structural and functional studies. In a total volume of 0.4 ml of 10 mM Tris-HCl, pH 7.0, 0.05 mg of purified cyclase were incubated with 1 mM cADPR (or NAD^+), 5 mM adenine and 2 mM MgCl2 at room temperature. cADPR or NAD^+ was added to the reaction mixture every 6 hours, while every 24 hours fresh cyclase was added and an aliquot of the incubation was deproteinised with TCA (5% final concentration) and analysed by HPLC (analytical phosphate) to monitor dinucleotide production. After 3-5 days, the resulting incubation was extracted with TCA and 250 μl aliquots were injected into an HPLC column (preparative phosphate). The P18, P24 and P31 peaks were collected, lyophilised in a RotoVapor, re-dissolved in deionised water and injected into an HPLC column (preparative formate). […] The purified peaks produced by Axinella cyclase were used in in vitro experiments on the various cell types described hereinafter, for the enzymatic production of mononucleotides and nucleosides (see below), as internal and external HPLC standards to identify the dinucleotides in cell extracts, and for detecting the absorption spectra stored in the liquid chromatograph library as standards.

Data set [7] relates to CD38^− cells. The experiment in a line: Uptake of extracellularly added dinucleotides in CD38- cells. The data set is classed as in vitro ADME, human. The settings on record: 15 μM added extracellularly.

Read-outs that look alike come from different tables or passages of the source.

For the compound `N=c1c2ncn3c2ncn1[C@@H]1O[C@H](COP(=O)(O)OP(=O)(O)OC[C@H]2O[C@@H]3[C@H](O)[C@@H]2O)[C@@H](O)[C@H]1O` [cADPR, cyclic ADP-ribose, reference compound], the hydrolysis activity is recorded as 770 nmol/min/mg in data set [1], 170 nmol/min/mg in data set [2], 308 nmol/min/mg in data set [3] and 0.49 nmol/min/mg in data set [4].

The IC50 is the concentration that gives 50% inhibition. Consider `Nc1ncn([C@@H]2O[C@H](CO)[C@@H](O)[C@H]2O)c2ncnc1-2` [iso-adenosine from P24, 3-β-ribofuranosyladenine], for which, in data set [5], the IC50 was found to be 5 µM.

`Nc1ncnc2c1ncn2[C@@H]1O[C@H](CO[P@](=O)(O)O[P@](=O)(O)OC[C@H]2O[C@@H](n3cnc4c(N)ncnc43)[C@H](O)[C@@H]2O)[C@@H](O)[C@H]1O` [P31, diadenosine diphosphate, reference compound]: the degradation on storage entry in data set [6] is “no dinucleotide degradation was observed”. Moreover, the “rate of increase of intracellular concentration (uptake)” value in data set [7] is “approx. 2.4 pmol/min/mg”. The hydrolysis activity in data set [4] (HeLa-CD38^+ whole cells, P18 and P24 to adenine and ADPR) stood at 0.15 nmol/min/mg.

Turning to `Nc1c2ncnc-2ncn1[C@@H]1O[C@H](CO)[C@@H](O)[C@H]1O` [iso-adenosine from P18, 1-β-D-ribofuranosyladenine], the IC50 in data set [5] was 37 µM.

The values are drawn from patent US7868163B2, “Adenyl dinucleotides with antitumour activity and a method of preparing thereof” (Universita' Degli Studi Di Genova, priority 2005, dated 2011).
